# Measured values from article PMC9317316, “Synthesis and Evaluation of Some New 4H-Pyran Derivatives as Antioxidant, Antibacterial and Anti-HCT-116 Cells of CRC, with Molecular Docking, Antiproliferative, Apoptotic and ADME Investigations” (Pharmaceuticals, 2022).
# Several values for one entry are separate records, joined by “and”; a condition that tells them apart may be missing. Equal values may be shown once. Read-outs that look alike come from different tables or passages of the source.
# Experiments:
# HCT-116 cells = test: Cell viability (cytotoxicity, LDH release) assay; assay type: cell-based; settings: Homo sapiens, 24 h; for viability at 100 µg/mL: read-out: percent of viable cells
# Procedure: The synthesized compounds were also examined at four concentrations (10, 25, 50 and 100 µg/mL) for their cytotoxic effects on human colorectal cancer HCT-116 cells after their incubation together for 24 h.
# Cytotoxic potency was examined for a human colon cancer cell line HCT-116 (American Type Culture Collection; Manassas, VA, USA) using various amounts of each compound (10, 25, 50 and 100 µg). Samples were diluted in Dulbecco’s Modified Eagle’s Medium, consisting of 10% Fetal Bovine Serum, and added to cells grown and cultured for 24 h in a 5% CO2-humidified incubator at 37 °C. Then, the activity of lactate dehydrogenase released from damaged cells was determined in the collected supernatant aliquots using an ELISA endpoint assay (Benchmark Plus, Bio-Rad, Hercules, CA, USA). As positive and negative controls, respectively, 0.1% Triton X-100 in the assay medium and the assay medium only were used. Cell viability, shown as mean values ± SDs (n = 3), was expressed as a relative percentage of the OD values determined at 600 nm in compound-treated cells and the control.
# B. subtilis (ATCC 6633) [1] = test: Antibacterial agar diffusion method (inhibition zone); assay type: cell-based
# Procedure: (§1) The results for the in vitro antibacterial properties of the synthesized compounds against five Gram-positive and four Gram-negative human-pathogenic strains, which were assessed by both the agar diffusion method (based on inhibition zone (IZ)) and the broth dilution bioassay (for the determination of the half-maximal inhibitory concentration (IC50) values), using ampicillin as the reference antibiotic drug, are shown in Table 2 and Table 3.
# (§2) The antibacterial activity of all synthesized compounds was evaluated against the Gram-negative strains E. coli (ATCC 25966), K. pneumonia (ATCC 700603), P. aeruginosa (ATCC 27853) and S. enteric (ATCC 43972) and against the Gram-positive strains B. cereus (ATCC 14579), B. subtilis (ATCC 6633), E. faecalis (ATCC 29122), S. aureus (ATCC 25923) and S. epidermidis (ATCC 14990), using the agar diffusion method through measuring the appearance of the inhibition zone on the surface of the top agar, as reported by Berghe and Vlietinck. Ampicillin (10 µg/well) was used as the positive reference standard. Bacterial viability was also investigated by determining the colony-forming ability (CFU) of bacteria incubated at different time intervals without or with appropriate amounts of the compound, which were mixed with 2 ×10^7 CFU/mL in sterile BHI and incubated under shaking for 60 min at 37 °C. Samples were serially diluted into sterile BHI, streaked onto media agar plates and incubated for 24 h at 37 °C. The antibacterial potency of the tested compounds was expressed as the residual number of CFUs with reference to the initial inoculums. The results presented as the half-maximal (50 %) inhibitory concentration (IC50) values are the means of three different measurements.
# E. coli (ATCC 25966) [2] = test: as above; assay type: cell-based; settings: E. coil (ATCC 25966)
# Procedure: as §1, §2
# [3] = test system: P. aeruginosa (ATCC 27853); test: as above; assay type: cell-based
# Procedure: as §1, §2
# S. aureus (ATCC 25923) [4] = test: as above; assay type: cell-based
# Procedure: as §1, §2
# E. faecalis (ATCC 29122) [5] = test: as above; assay type: cell-based
# Procedure: as §1, §2
# [6] = test system: K. pneumonia (ATCC 700603); test: as above; assay type: cell-based
# Procedure: as §1, §2
# [7] = test system: S. epidermidis (ATCC 14990); test: as above; assay type: cell-based
# Procedure: as §1, §2
# B. cereus (ATCC 14579) [8] = test: as above; assay type: cell-based
# Procedure: as §1, §2
# [9] = DPPH radical scavenging assay; settings: for IC50: 0.03 to 1 mg/mL, 1 h, mean ± SD, triplicate, read-out: IC50 (mM) for DPPH Scavenging Potency
# Procedure: The IC50 values for DPPH were calculated from the plot of the scavenging effect against the compound concentration.
# The compounds’ capacities to scavenge the stable radical 1,1 diphenyl-2-picrylhydrazyl (DPPH) formed in solution by donation of a hydrogen atom or an electron was investigated according to the method described by Bersuder and coworkers. Due to the fact that the initial blue/purple solution of diphenyl picrylhydrazine changes to yellow in the presence of compounds with a capacity to scavenge DPPH free radicals, this reaction is used as a measure of a compound’s ability to scavenge any free radical. Briefly, a 0.5 mL volume of DPPH ethanolic solution was mixed with an equal volume of each sample concentration (0.03 to 1 mg/mL), shaken strongly and incubated at room temperature for 1 h in darkness. The absorbance of the residual DPPH radicals was measured at 519 nm and compared to that of the control (without the tested compound). DPPH radical scavenging was calculated using the following formula: Scavenging effect (%) = (1 − Acompound/AControl) × 100, where Acompound and Acontrol are the absorbances of the tested compound and of the control, respectively. A plot of the scavenging effect (%) versus the sample concentration was also performed to determine the compound concentration providing 50% inhibition (IC50).
# [10] = Reducing power assay (FRAC, Fe3+ to Fe2+); settings: 0-1 mg/mL, absorbance 700 nm
# Procedure: Secondly, FRAC was determined over the concentration range of 0.0−1 mg/mL via monitoring Fe^3+−Fe^2+ transformation in the presence of the studied compounds and the reference antioxidant BHT to estimate the values of efficient concentration (EC50), expressed in mM.
# The reducing power of the studied compounds was assessed according to Oyaizu’s method. Briefly, different concentrations (ranging from 0 to 1 mg/mL) of each tested compound were first mixed with 1 mL of 0.2 M sodium phosphate buffer (pH 6.6) and 1 mL of 1% potassium ferricyanide (K3Fe(CN)6) and incubated at 50 °C for 20 min. After the addition of 1.25 mL of 20% trichloroacetic acid (TCA), the mixture was centrifuged for 10 min at 3000 rpm and the upper layer solution was then mixed with 0.5 mL of 0.1% fresh ferric chloride and an equal volume of deionized water. Finally, the absorption of the resulting mixture was measured at 700 nm using a UV spectrophotometer against distilled water as the blank, while butylated hydroxytoluene (BHT) was used as a positive control. The sample ferric reducing power capability was indicated by increased absorbance.
# B. subtilis (ATCC 6633) [11] = test: Antibacterial viability (CFU) assay, IC50; assay type: cell-based
# Procedure: as §1, §2
# E. coli (ATCC 25966) [12] = test: Antibacterial viability (CFU) assay, IC50; assay type: cell-based; settings: Escherichia coli, ATCC25966; E. coil (ATCC 25966)
# Procedure: as §1, §2
# [13] = test system: P. aeruginosa (ATCC 27853); test: Antibacterial viability (CFU) assay, IC50; assay type: cell-based; settings: Pseudomonas aeruginosa, ATCC27853
# Procedure: as §1, §2
# S. aureus (ATCC 25923) [14] = test: Antibacterial viability (CFU) assay, IC50; assay type: cell-based; settings: Staphylococcus aureus, ATCC25923
# Procedure: as §1, §2
# E. faecalis (ATCC 29122) [15] = test: Antibacterial viability (CFU) assay, IC50; assay type: cell-based; settings: Enterococcus faecalis, ATCC29122
# Procedure: as §1, §2
# [16] = test system: K. pneumonia (ATCC 700603); test: Antibacterial viability (CFU) assay, IC50; assay type: cell-based; settings: Klebsiella pneumoniae, ATCC700603
# Procedure: as §1, §2
# [17] = test system: S. epidermidis (ATCC 14990); test: Antibacterial viability (CFU) assay, IC50; assay type: cell-based; settings: Staphylococcus epidermidis, ATCC14990
# Procedure: as §1, §2
# S. enteric (ATCC 43972) = test: Antibacterial viability (CFU) assay, IC50; assay type: cell-based
# Procedure: as §1, §2
# B. cereus (ATCC 14579) [18] = test: Antibacterial viability (CFU) assay, IC50; assay type: cell-based; settings: Bacillus cereus, ATCC14579
# Procedure: as §1, §2
# [19] = Bacillus subtilis, ATCC6633, B. subtilis (ATCC 6633)
Compound,viability at 100 µg/mL (HCT-116 cells) [%],IZ (mm) (B. subtilis (ATCC 6633) [1]),IZ (mm) (E. coli (ATCC 25966) [2]),IZ (mm) [3] [mm],IZ (mm) (S. aureus (ATCC 25923) [4]),IZ (mm) (E. faecalis (ATCC 29122) [5]),IZ (mm) [6] [mm],IZ (mm) [7],IZ (mm) (B. cereus (ATCC 14579) [8]),IC50 [9] [mM],DPPH Radical Scavenging Effenciency (%) at 1 mg/mL [9],EC50 [10] [µM],IC50 (B. subtilis (ATCC 6633) [11]; [19]) [µM],IC50 (E. coli (ATCC 25966) [12]) [µM],IC50 [13] [µM],IC50 (S. aureus (ATCC 25923) [14]) [µM],IC50 (E. faecalis (ATCC 29122) [15]) [µM],IC50 [16] [µM],IC50 [17] [µM],IC50 (S. enteric (ATCC 43972); read-out: IC50) [µM],also measured
"CCOC(=O)C1=C(C)OC(N)=C(C#N)C1c1cccc(O)c1Cl (centres unmarked) [4g, 6-Amino-4-(2-chloro-3-hydroxy-phenyl)-5-cyano-2-methyl-4H-pyran-3-carboxylic acid ethyl ester]",86,28.00 mm and 28.00 ± 1.41 mm,11.0 ± 1.41,13.5 ± 0.7,27.50 mm and 27.50 ± 0.71 mm,24.50 mm and 24.50 ± 0.71 mm,11.5 ± 0.7,29.75 mm and 29.75 ± 0.35 mm,29.00 mm and 29.00 ± 1.41 mm,0.329 ± 0.042,90.50% and 90.50 ± 2.12%,72 ± 4,25.7 ± 1.7,61.8 ± 5.38,54.1 ± 4.48,27.8 ± 1.25,31.8 ± 1.49,61.8 ± 2.99,30.3 ± 1.49,53 ± 3.29,IC50 (S. enteric (ATCC 43972)): 54.1 µM; IC50 (B. cereus (ATCC 14579) [18]): 29.4 ± 1.49 µM; melting point: 212 to 213 °C
"COc1ccc(C2C(C#N)=C(N)OC(C)=C2C(=O)OCc2ccccc2)cc1 (centres unmarked) [4j, 6-Amino-5-cyano-4-(4-methoxy-phenyl)-2-methyl-4H-pyran-3-carboxylic acid benzyl ester]",94,21.50 mm and 21.50 ± 0.71 mm,10.5 ± 0.71,14.5 ± 0.7,25.25 mm and 25.25 ± 1.06 mm,23.20 mm and 23.20 ± 0.57 mm,12.0 ± 1.4,26.65 mm and 26.65 ± 0.92 mm,24.50 mm and 24.50 ± 0.71 mm,0.194,88.00% and 88.00 ± 1.41%,74 ± 4,23.6 to 36.8,57.1 ± 0.8,49.7 ± 4.78,33.3 ± 1.7,28.2 ± 1.51,48.4 ± 3.99,33.3 ± 1.7,51.8 ± 2.92,IC50 (B. subtilis (ATCC 6633) [11]; B. subtilis (ATCC 6633)): 23.6 ± 0.37 µM; IC50 (S. enteric (ATCC 43972)): 49.7 µM; IC50 (B. cereus (ATCC 14579) [18]): 27.6 ± 1.51 µM; melting point: 170 to 172 °C
"Cc1cc(C(C)(C)C)c(O)c(C(C)(C)C)c1 [BHT, butylated hydroxytoluene, reference compound]",,,,,,,,,,0.245 ± 0.027,95.30% and 95.30 ± 0.42%,89 ± 3,,,,,,,,,
"CCOC(=O)C1=C(C)OC(N)=C(C#N)C1c1cccc(OC)c1[N+](=O)[O-] (centres unmarked) [4b, 6-Amino-5-cyano-4-(3-methoxy-2-nitro-phenyl)-2-methyl-4H-pyran-3-carboxylic acid ethyl ester]",11 to 32.5,19.50 ± 0.71 mm,2.5 ± 0.71,2.5 ± 0.7,20.50 ± 0.71 mm,15.50 ± 0.71 mm,1.5 ± 0.7,23.50 mm and 23.50 ± 0.71 mm,16.50 ± 0.71 mm,2.56 ± 0.117,23.25 ± 1.06%,1200 ± 79,49.1 ± 1.39,100 ± 3.9,84 ± 5.01,50.2 ± 1.39,56.8 ± 1.59,99.1 ± 2.5,32.4 ± 1.39,118 ± 3.34,IC50 (HCT-116 cells; read-out: Mean IC50 (µM) of cytotoxicity): 102 ± 8.83 µM; IC50 (HCT-116 cells; read-out: Mean IC50 (µg/mL) of cytotoxicity): 36.5 ± 3.18 µg/mL; IC50 (B. cereus (ATCC 14579) [18]): 43.1 ± 1.98 µM; melting point: 220 to 222 °C
